Laboratory results taken from US20090305993A1, “METHODS AND COMPOSITION FOR THE TREATMENT OF GASTROINTESTINAL DISORDERS” (IRONWOOD PHARMACEUTICALS, INC., priority 2006, published 2009).
Where a SMILES comes first, the peptide text is derived from it. Bridges are numbered along the chain shown (N, C = ends). Where no end group is shown, it is not given here.

Assays:
suckling mice = assay: suckling mouse model of intestinal secretion (SuMi assay); assay type: in vivo
Method: In this model a test compound is administered to suckling mice that are between 7 and 9 days old. After the mice are sacrificed, the gastrointestinal tract from the stomach to the cecum is dissected (“guts”). The remains (“carcass”) as well as the guts are weighed and the ratio of guts to carcass weight is calculated. If the ratio is above 0.09, one can conclude that the test compound increases intestinal secretion. […] The effect of Zelnorm® was also studied.

[1] = target: T1, GC-C receptors found in rat intestinal mucosa (Rattus norvegicus, UniProt P23897); settings: same assay, observed by Giannella et al.; cited from earlier work
T1 construct: Epithelial cells from the small intestine of rats were obtained; from tissue; host or cells: rat small intestine mucosa / epithelial cell suspension
T1 sequence (P23897 23-1072): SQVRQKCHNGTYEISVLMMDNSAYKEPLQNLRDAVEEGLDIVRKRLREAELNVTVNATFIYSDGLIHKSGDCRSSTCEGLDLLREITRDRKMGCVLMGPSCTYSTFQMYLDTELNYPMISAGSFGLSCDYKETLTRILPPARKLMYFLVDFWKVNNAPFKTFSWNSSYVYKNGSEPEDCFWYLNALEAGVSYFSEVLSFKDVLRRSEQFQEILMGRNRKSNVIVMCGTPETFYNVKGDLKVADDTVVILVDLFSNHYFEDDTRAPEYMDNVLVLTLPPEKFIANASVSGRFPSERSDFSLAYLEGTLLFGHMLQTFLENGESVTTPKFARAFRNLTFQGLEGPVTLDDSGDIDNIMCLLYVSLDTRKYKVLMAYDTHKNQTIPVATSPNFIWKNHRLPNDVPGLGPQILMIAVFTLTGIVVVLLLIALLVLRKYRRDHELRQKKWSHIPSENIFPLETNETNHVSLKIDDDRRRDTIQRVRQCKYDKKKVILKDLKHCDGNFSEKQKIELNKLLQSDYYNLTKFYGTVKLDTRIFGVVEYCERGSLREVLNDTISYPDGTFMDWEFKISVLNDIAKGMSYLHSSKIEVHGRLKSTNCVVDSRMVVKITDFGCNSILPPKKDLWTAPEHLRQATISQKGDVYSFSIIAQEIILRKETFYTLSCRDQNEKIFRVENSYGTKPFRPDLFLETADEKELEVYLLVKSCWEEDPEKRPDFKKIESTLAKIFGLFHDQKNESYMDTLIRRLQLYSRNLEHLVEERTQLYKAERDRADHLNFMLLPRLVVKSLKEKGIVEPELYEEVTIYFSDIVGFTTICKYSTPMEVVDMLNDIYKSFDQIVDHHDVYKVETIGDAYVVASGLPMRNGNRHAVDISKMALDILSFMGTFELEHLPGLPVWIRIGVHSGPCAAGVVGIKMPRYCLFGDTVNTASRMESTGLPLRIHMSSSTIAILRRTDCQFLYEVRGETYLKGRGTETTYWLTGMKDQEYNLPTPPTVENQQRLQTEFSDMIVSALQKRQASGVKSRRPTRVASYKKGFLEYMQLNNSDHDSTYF

intestinal GC-C receptor = target: T2, intestinal GC-C receptor (Homo sapiens, UniProt P25092); assay: intestinal GC-C receptor activity assay (cyclic GMP EIA) in T84 cells; assay type: cell-based; settings: chemically synthesized peptides, FIGS. 2a and 2b
T2 construct: monolayers of T84 cells in 24-well plates; host or cells: T84 human colon carcinoma cells
T2 sequence (P25092 24-1073): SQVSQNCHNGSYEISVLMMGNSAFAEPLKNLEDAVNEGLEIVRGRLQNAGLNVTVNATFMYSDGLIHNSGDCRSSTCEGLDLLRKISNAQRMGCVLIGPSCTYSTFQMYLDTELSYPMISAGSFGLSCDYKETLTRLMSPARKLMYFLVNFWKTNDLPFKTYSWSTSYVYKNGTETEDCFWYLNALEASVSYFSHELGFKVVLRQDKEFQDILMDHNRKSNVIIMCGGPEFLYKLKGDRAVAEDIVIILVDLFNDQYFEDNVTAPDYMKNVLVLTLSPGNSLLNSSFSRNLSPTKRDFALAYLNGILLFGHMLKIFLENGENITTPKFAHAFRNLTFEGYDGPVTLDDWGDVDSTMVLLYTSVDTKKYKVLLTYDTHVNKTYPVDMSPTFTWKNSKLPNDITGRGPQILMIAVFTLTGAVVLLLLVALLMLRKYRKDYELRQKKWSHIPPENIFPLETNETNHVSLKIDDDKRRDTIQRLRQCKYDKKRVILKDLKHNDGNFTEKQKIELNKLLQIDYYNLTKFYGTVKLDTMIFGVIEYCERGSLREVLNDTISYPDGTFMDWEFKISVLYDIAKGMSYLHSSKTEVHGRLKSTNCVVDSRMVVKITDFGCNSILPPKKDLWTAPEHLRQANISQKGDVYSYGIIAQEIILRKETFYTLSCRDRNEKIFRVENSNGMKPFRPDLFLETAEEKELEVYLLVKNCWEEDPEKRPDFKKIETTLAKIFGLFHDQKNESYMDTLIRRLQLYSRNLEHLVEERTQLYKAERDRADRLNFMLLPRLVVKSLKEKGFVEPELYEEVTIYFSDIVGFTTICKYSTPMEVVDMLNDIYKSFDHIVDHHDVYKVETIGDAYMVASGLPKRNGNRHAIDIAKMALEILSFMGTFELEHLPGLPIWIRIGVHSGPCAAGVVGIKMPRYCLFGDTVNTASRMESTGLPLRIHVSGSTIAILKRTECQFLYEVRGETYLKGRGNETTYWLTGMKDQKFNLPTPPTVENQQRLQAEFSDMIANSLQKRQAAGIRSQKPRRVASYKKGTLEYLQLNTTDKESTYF
Method: The ability of SEQ ID NO:5, SEQ ID NO:4, SEQ ID NO:3, and SEQ ID NO:6 to activate the intestinal GC-C receptor was assessed in an assay employing the T84 human colon carcinoma cell line (American Type Culture Collection (Bethesda, Md.)). For the assays cells were grown to confluency in 24-well culture plates with a 1:1 mixture of Ham's F12 medium and Dulbecco's modified Eagle's medium (DMEM), supplemented with 5% fetal calf serum and were used at between passages 54 and 60.
Briefly, monolayers of T84 cells in 24-well plates were washed twice with 1 ml/well DMEM, then incubated at 37° C. for 10 min with 0.45 ml DMEM containing 1 mM isobutylmethylxanthine (IBMX), a cyclic nucleotide phosphodiesterase inhibitor. Test peptides (50 μl) were then added and incubated for 30 minutes at 37° C. The media was aspirated and the reaction was then terminated by the addition of ice cold 0.5 ml of 0.1N HCl. The samples were held on ice for 20 minutes and then evaporated to dryness using a heat gun or vacuum centrifugation.

mice = assay: murine gastrointestinal transit (GIT) assay, acute dosing; assay type: in vivo, mouse; settings: for gastrointestinal transit rate: oral, SEQ ID NO:4 0.1 mg/kg, Zelnorm 0.1 mg/kg, FIG. 3a, 3b; for intestinal transit rate versus dosage: recombinantly synthesized peptides, FIG. 4a
Method: In order to determine whether the peptides increase the rate of gastrointestinal transit, the peptides and controls were tested using a murine gastrointestinal transit (GIT) assay (Moon et al. Infection and Immunity 25:127, 1979). In this assay, charcoal, which can be readily visualized in the gastrointestinal tract is administered to mice after the administration of a test compound. The distance traveled by the charcoal is measured and expressed as a percentage of the total length of the […].
Mice were fasted with free access to water for 12 to 16 hours before the treatment with peptide or control buffer. The peptides were orally administered at 1 μg/kg-1 mg/kg of peptide in buffer (20 mM Tris pH 7.5) 7 minutes before being given an oral dose of 5% Activated Carbon (Aldrich 242276-250G). Control mice were administered buffer only before being given a dose of Activated Carbon. After 15 minutes, the mice were sacrificed and their intestines from the stomach to the cecum were dissected. The total length of the intestine as well as the distance traveled from the stomach to the charcoal front was measured for each animal and the results are expressed as the percent of the total length of the intestine traveled by the charcoal front. All results are reported as the average of 10 mice±standard deviation. A comparison of the distance traveled by the charcoal between the mice treated with peptide versus the mice treated with vehicle alone was performed using a Student's t test and a statistically significant difference was considered for P<0.05. P-values are calculated using a two-sided T-Test assuming unequal variances.

mouse = assay: phenylbenzoquinone (PBQ)-induced writhing model; settings: oral; SEQ ID NO:5 1 mg/kg, SEQ ID NO:3 2.5 mg/kg; versus vehicle control, FIGS. 8a, 8b
carboxypeptidase A = target: T3, carboxypeptidase A (Homo sapiens, UniProt P15085); assay: in vitro proteolytic stability, carboxypeptidase A
T3 sequence (P15085 111-419): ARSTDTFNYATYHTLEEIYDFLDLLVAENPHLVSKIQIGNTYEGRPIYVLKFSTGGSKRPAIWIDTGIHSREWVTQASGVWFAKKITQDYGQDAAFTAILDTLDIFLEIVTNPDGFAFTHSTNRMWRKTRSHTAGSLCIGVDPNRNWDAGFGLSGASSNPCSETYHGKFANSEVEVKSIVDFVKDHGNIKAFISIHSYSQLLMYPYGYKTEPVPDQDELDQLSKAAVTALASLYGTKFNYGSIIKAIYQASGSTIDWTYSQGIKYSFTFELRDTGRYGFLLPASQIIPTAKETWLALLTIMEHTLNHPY
Method: The stability of SEQ ID NO:3 in the presence of several mammalian digestive enzymes was determined. SEQ ID NO:3 was exposed to a variety of in vitro conditions including digestive enzymes and low ph environments designed to simulate gastric fluid. SEQ ID NO:3 was incubated with chymotrypsin, trypsin, pepsin, aminopeptidase, carboxypeptidase A, and simulated gastric fluid (sgf) at ph 1.0. Samples were collected at 0, 3, and 24 h for all conditions except pepsin digestion and the SGF. For the latter two conditions, samples were obtained at 0, 1, and 3 h. Negative control samples were prepared for initial and final time points. A separate, positive activity control was run in parallel to SEQ ID NO:3. All samples were analyzed by LC/MS
Five (5) μL of a 40 μg/mL carboxypeptidase inhibitor (carboxypeptidase inhibitor from potato tuber (Sigma-Aldrich, C0279) stock was added to each control sample (0 and 24 h), for a final concentration of 0.4 μg/mL. All control and test (0, 3 and 24 h) samples were incubated at 37° C. for 5 min. Twenty (20) μL of a 0.01 mg/mL carboxypeptidase A (Carboxypeptidase A from human pancreas; Sigma-Aldrich, C5358) stock was added to each sample. The samples were returned to the 37° C. water bath. The reaction was quenched with 5 μL of a 40 μg/mL carboxypeptidase inhibitor at the proper time point. No extra carboxypeptidase inhibitor was added to the control samples since there was already inhibitor present. Samples were subsequently flash frozen in liquid nitrogen, and stored at −80° C. until analysis. Upon analysis, samples were thawed and transferred to a 1 mL 96-well deep microtiter plate. […] These standards were used to generate a standard curve for quantification of samples. When necessary, the standard curves were also used to calculate the concentration of the corresponding digestion product. Ten (10) μL injections were made of each sample and standard.
To further study the SEQ ID NO:3 carboxypeptidase A digestion product, samples of 0.01 mg/mL SEQ ID NO:3 were prepared in the carboxypeptidase A reaction buffer at a total volume of 500 μL in 2 mL eppendorf tubes. Triplicate samples were prepared for the following time points: 0, 15, 30, 60, 120, 180 and 240 min. The samples were incubated at 37° C. for 5 min. Twenty (20) μL of a 0.01 mg/mL carboxypeptidase A stock were added to each sample and returned to the 37° C. water bath. The reactions were quenched with 5 μL of a 40 μg/mL carboxypeptidase inhibitor at the proper time points. Samples were subsequently flash frozen in liquid nitrogen, and stored at −80° C. until analysis. Upon analysis, samples were thawed and transferred to a 1 mL 96-well plate. Standards of SEQ ID NO:3 were prepared in carboxypeptidase A reaction buffer at 0.625, 1.25, 2.50, 5.00, and 10.00 μg/mL concentrations. These standards were used to generate a standard curve for quantification of samples. When necessary, the standard curves were also used to calculate the concentration of the corresponding digestion product. Ten (10) μL injections were made of each sample and standard. If the formation of a digestion product was evident, then a spectral analysis was used to determine the mass of the digestion product, and predict its possible identity.

[2] = oral bioavailability in rats, LCMS; assay type: in vivo, rat; settings: plasma
Method: Similarly, oral bioavailability was determined in rats using LCMS methodology. Rat plasma samples containing SEQ ID NO:3 and/or SEQ ID NO:6 were extracted using a Waters Oasis MAX 96 well solid phase extraction (SPE) plate. A 200 μL volume of rat plasma was mixed with 200 μL of ^13C9, ^15N—SEQ ID NO:3 in the well of a prepared SPE plate. The samples were drawn through the stationary phase with 15 mm Hg vacuum. All samples were rinsed with 200 μL of 2% ammonium hydroxide in water followed by 200 μL of 20% methanol in water. The samples were eluted with consecutive 100 μL volumes of […] formic acid/water/methanol and 100 μL 5/15/80 formic acid/water/methanol. The samples were dried under nitrogen and resuspended in 100 μL of 20% methanol in water. Samples were analyzed by a Waters Quattro Micro mass spectrometer coupled to a Waters 1525 binary pump with a Waters 2777 autosampler. A 40 μL volume of each sample was injected onto a Thermo Hypersil GOLD C18 column (2.1×50 mm, 5 um). SEQ ID NO:3 and SEQ ID NO:6 were eluted by a gradient over 3 minutes with acetonitrile and water containing 0.05% trifluoroacetic acid. The Quattro Micro mass spectrometer was run in multiple reaction monitoring (MRM) mode using the mass transitions of 764>182 and 682>136 for SEQ ID NO:3 and SEQ ID NO:6 respectively. Using this methodology, SEQ ID NO:3 was dosed orally and by IV to rats at 10 mg/kg. […] In this experiment, the limit of detection (LOD) for SEQ ID NO:6 was 0.78 nM. SEQ ID NO:6 was detected at all time points for the intravenous dose and was not detected beyond 240 min for the oral dose. For non-detected values, the LOD was used as an upper estimate of the concentration of SEQ ID NO:6. The calculated value for AUCp.o., (0-6h) was <1308 nM-min and AUCi.v.,(0-6h) was 1,590,000 nM-min. The 6 h bioavailability of SEQ ID NO:6 determined by circulating plasma levels was 0.08%

CD1 female mice = assay: murine gastrointestinal transit assay, chronic dosing; assay type: in vivo, mouse; settings: oral, daily for 5 days; SEQ ID NO:3 0.06 or 0.25 mg/kg; FIG. 4c
Method: The identical experiment was performed to determine if SEQ ID NO:3 is effective in a chronic dosing treatment regimen. Briefly, 8 week old CD1 female mice are dosed orally once a day for 5 days with either SEQ ID NO:3 (0.06 mg/kg or 0.25 mg/kg in 20 mM Tris pH 7.5) or vehicle alone (20 mM Tris pH 7.5). On the 5th day, a GIT assay is performed identical to that above except 200 μl of a 10% charcoal solution is administered. […] The results are shown side by side with acute dosing (1 day).

[3] = recombinant peptides, dose response, FIG. 6a

Molecule: NSSNYCCELCCNPACTGCY [SEQ ID NO:4]
- intestinal secretion (ratio of guts to carcass weight) (suckling mice; dose response, FIG. 5a, 5b): increase intestinal secretion
- intestinal secretion (ratio of guts to carcass weight) (suckling mice; [3]): increase intestinal secretion
- Kd [1]: ~13 nM
- activity in GC-C receptor activity assay (intestinal GC-C receptor): activity comparable to SEQ ID NO:4
- intestinal transit rates versus Tris buffer and Zelnorm (mice; chemically synthesized peptides, FIG. 4b): increase intestinal transit rates more than either Tris buffer alone or an equivalent dose of Zelnorm®
- gastrointestinal transit rate (mice): increase gastrointestinal transit rate
- intestinal transit rate versus dosage (mice): increases with an increasing dosage

Molecule: NSSNYCCEYCCNPACTGCY (cysteine pairing not given here) [SEQ ID NO:5]
- intestinal secretion (ratio of guts to carcass weight) (suckling mice; [3]): increase intestinal secretion
- writhings (mouse): Significant reductions in writhings
- intestinal transit rate versus dosage (mice): increases with an increasing dosage

Molecule: C[C@@H]1NC(=O)[C@@H]2CCCN2C(=O)[C@H](CC(N)=O)NC(=O)[C@@H]2CSSC[C@H](N)C(=O)N[C@H]3CSSC[C@H](NC1=O)C(=O)N[C@@H]([C@@H](C)O)C(=O)NCC(=O)N[C@H](C(=O)O)CSSC[C@H](NC(=O)[C@H](Cc1ccc(O)cc1)NC(=O)[C@H](CCC(=O)O)NC3=O)C(=O)N2 [SEQ ID NO:6] (H-CCEYCCNPACTGC-OH; disulfide 1-6, 2-10, 5-13)
- average concentration (carboxypeptidase A; carboxypeptidase A digestion of SEQ ID NO:3, T0): 108 (+/−2) nM
- average concentration (carboxypeptidase A; carboxypeptidase A digestion of SEQ ID NO:3, T240 (240 min)): 726 (+/−138) nM
- AUC, intravenous dose (AUCi.v.,(0-6h)) ([2]; 10 mg/kg IV): 1,590,000 nM-min
- AUC, oral dose (AUCp.o.,(0-6h)) ([2]; 10 mg/kg oral): < 1308 nM-min

Molecule: [H]/N=C(/NCCCCC)N/N=C/c1c[nH]c2ccc(OC)cc12 [Zelnorm®, tegaserod, reference compound]
- intestinal secretion (ratio of guts to carcass weight) (suckling mice; 0.2 mg/kg): does not increase intestinal secretion
- gastrointestinal motility upon chronic dosing (CD1 female mice): effective
- gastrointestinal transit rate (mice): increase gastrointestinal transit rate
